Measured values from patent US20110177046A1, “DITHIAZOLIDINE AND THIAZOLIDINE DERIVATIVES AS ANTICANCER AGENTS” (Betagenon AB, priority 2007, published 2011).

Key:
Ob/Ob mice [1] = test: Test D blood glucose measurement study in diabetic Ob/Ob mice, Method (II); format: in vivo; conditions: 30 mg/kg gavage twice daily for 18 days, vs vehicle
Procedure: The aim of this study was to verify the efficacy of compound of Example 1 in the diabetic ob/ob mouse with regard to correction of the metabolic disorder hyperglycemia. Ob/ob mice were gavaged twice daily with compound of Example 1 and the effect of the compound on levels of blood glucose were assessed and the results were compared to a concurrent control group gavaged with vehicle.
(§1) Male B6.V-Lep^ob/JBomTac (model number OB-M) mice were bred and delivered by Taconic. Animals were housed in Umea University animal facility in transparent polycarbonate cages, with wood chip bedding at a 12 h light/darkness cycle, a temperature of ˜21° C., and a relative humidity of ˜50% throughout the accommodation and dosing periods. 5 animals were housed in each cage with free access to standard rodent chow (CRM(E)Rodent, Special Diets Services, Scanbur BK, Sweden) and tap water. All animal experiments were approved by the Local Ethics Review Committee on Animal Experiments, Umea Region.
(§2) In vivo potency and efficacy were determined in groups of 10 mice. […]
Blood glucose levels were measured by using a Glucometer Elite (Bayer) according to the manufacturer's recommendations.
(§3) Data in the figures are presented as means±SEM. P values were calculated using the Student's t-test. […]

AMPK = test: Test F activation of AMPK, Western blot of phospho-AMPKα Thr172 in HepG2 cells; format: cell-based, human; conditions: 10 μM
Procedure: (§4) The compound of Example 1 was obtained from Isosep AB, Uppsala, Sweden. A stock solution of 10 mM was prepared by dissolving the compound in 100% DMSO.
(§5) Human hepatoma HepG2 cells were purchased from American Type Culture Collection (ATCC, Manassas, USA). HepG2 cells were cultured in DMEM (Gibco 212885) containing 10% fetal bovine serum (Gibco 10500-064), 100 units/ml penicillin, 100 μg/ml streptomycin (Gibco 15140-122) and 1× non essential amino acids (Gibco 11140). The cells were incubated in a humidified atmosphere of 5% CO2 at 37° C. and passaged every 3 days by trypsinization. For experiments, HepG2 cells were incubated in complete medium with 10% fetal bovine serum in 60 or 100-mm-diameter dishes and grown to ˜70-80% confluence and subjected to assays after overnight serum depletion (16 h). After incubation in serum-free DMEM, the compound of Example 1 that was dissolved in DMSO was added to the medium.
Cells were lysed in 100 mM TRIS pH 6.8, 2% w/v Sodium dodecyl sulfate (SDS), 10 mM NaF, 10 mM β-glycerophosphate, 1 mM Na Vanadate. Protein concentration of the lysates was measured by BCA protein assay kit (Pierce #23225). 25 μg protein was loaded in each well of a 4-12% bis/tris gel for AMPK detection (Criterion precast gel Bio-Rad #345-0124) or 5% Tris-HCl gel for acetyl-CoA carboxylase (ACC) detection (Criterion Precast gel Bio-Rad #345-0002) and run according to manufacturers recommendation. Gels were blotted onto nitrocellulose filters (Hybond-C extra Amersham #RPN203E). Filters were blocked in 20 mM TRIS pH 7.5, 137 mM NaCl, […] and 5% w/v fat free powdered milk for 30 min. Filters were incubated overnight in blocking solution with phospho-AMPKαThr172, AMPKα or phospho-ACC (Ser 79) (Cell signalling #2531, #2532 and #3661). Filters were washed in 20 mM TRIS pH 7.5, 137 mM NaCl, […] for 3×5 min. Filters were incubated in blocking solution with secondary antibody, peroxidase-conjugated Goat anti rabbit IgG (Jackson immunoResearch #111-035-003) in room temperature for 1 h. Filters were washed as above for 3×10 min. […]

[2] = system: MDA-MB-231 human breast cancer cell lines; test: Test A cell proliferation assay (BrdU incorporation); format: cell-based; conditions: MDA-MB-231 cells; for BrdU incorporation relative to vehicle control (1 unit): approximate
Procedure: The cell line was propagated in D-MEM (Gibco 21885) supplemented with 10% Foetal calf serum. 15000 cells per well were seeded in 96 well plates and incubated overnight. The culture media was changed to serum-free D-MEM for 24 h. […] After 18 h incubation, BrdU was added according to manufacturer's recommendations. After 6 h incubation in the presence of BrdU, the culture media was removed and BrdU incorporation was measured using “Cell Proliferation ELISA, BrdU colorimetric” Roche (11647229001) according to manufacturer's recommendations.

[3] = system: acetyl-CoA carboxylase (ACC); test: Test F phosphorylation of ACC (Ser 79), Western blot in HepG2 cells; format: cell-based, human; conditions: 10 μM
Procedure: as §4, §5
Cells were lysed in 100 mM TRIS pH 6.8, 2% w/v Sodium dodecyl sulfate (SDS), 10 mM NaF, 10 mM β-glycerophosphate, 1 mM Na Vanadate. Protein concentration of the lysates was measured by BCA protein assay kit (Pierce #23225). […]

[4] = system: MDA-MB-231 human breast cancer cells xenograft tumors; test: Test B in vivo mouse model Test 2, tumor weight; set-up: species or system Athymic BALB/cA nude mice; conditions: 8 mg/kg i.p. once daily for 27 days; vehicle control approximately 225 mg
Procedure: 5 week old Athymic BALB/cA nude mice are delivered from Taconic (Denmark) and kept under barrier conditions for 1 week acclimatisation. At 6 weeks, 17 mice are injected subcutaneously on the flank with 1.8×10^6 MDA-MB-231 human breast cancer cells (LGC Promochem-ATCC) in a 50/50 v/v solution of phosphate buffered saline (PBS) (Gibco 10010-015, Invitrogen) Matrigel HC (BD Biosciences).
After 11 days, palpable tumors are observed in 16 mice. 2 mice are sacrificed and the tumors dissected and examined. 2 groups of 7 mice each are treated once daily by intraperitoneal injections of 1-10 mg/kg bodyweight of test compound in 79% PBS/20% Solutol HS 15 (BASF)/1% DMSO or vehicle control respectively for 5-30 days. The mice are sacrificed by cervical dislocation and tumors are dissected.
The above test procedure was followed, but 16 (rather than 17) mice were injected subcutaneously.
2 groups of 8 mice each were treated once daily by intraperitoneal injections of 8 mg/kg bodyweight of compound of Example 1 in 79% PBS/20% Solutol HS 15(BASF)/1% DMSO or vehicle control respectively for 27 days. Tumors were dissected and weighed at the end of the experiment.

[5] = system: human primary mesangial cells; test: Test G amelioration of TGFβ dependent collagen IV secretion (ELISA); format: cell-based; conditions: 2.5 μM with TGFβ 0.5 ng/ml, 48 h, ELISA absorbance
Procedure: Human primary mesangial cells (Lonza) were seeded at a density of 57 00 cells per well in a 24 well plate in DMEM (Gibco 212885) supplemented with Non essential amino acids (Gibco 11140) Penicillin/streptomycin (Gibco 15140-122) and 10% Foetal Calf Serum (FBS) (Gibco 10500-064)
After 24 h incubation, media was changed to DMEM (Gibco 212885) supplemented with Non essential amino acids (Gibco 11140) Penicillin/streptomycin (Gibco 15140-122) and 0.5% Foetal Calf Serum (FBS)(Gibco 10500-064) as the experimental media. After 24 h incubation, media was changed to experimental media containing either vehicle or […] (0.5 ng/ml), compound of Example 1 (2.5 μM), or TGFβ (0.5 ng/ml) and compound of Example 1 (2.5 μM) in combination.
After 48 h of exposure the supernatant from each well was collected and subjected to ELISA analysis.
Using Nunc Maxisorp microtiter plates, duplicate samples of conditioned cell culture medium (diluted 1:10) was used for coating ([…], 18 h, +4° C.). […] After 3× washing in ELISA buffer, reactions were visualised using 100 μl/well TMB liquid substrate system for ELISA (Sigma) After maximum 30 min reactions were stopped by addition of 25 μl 1 M H2SO4 and immediately analysed at 450 nm using a Multiskan EX plate reader (Thermo Labsystems).

Ob/Ob mice [6] = test: Test E plasma triglyceride study in diabetic Ob/Ob mice, Method (II); format: in vivo; conditions: fed Ob/Ob mice, 15 mg/kg gavage twice daily for 20 days, vs vehicle
Procedure: (§6) The aim of this study was to verify the efficacy of compound of Example 1 in the diabetic ob/ob mouse with regard to correction of the metabolic disorder hypertriglyceridemia. Ob/ob mice were gavaged twice daily with compound of example 1 and the effect of the compound on levels of plasma triglycerides were assessed and the results were compared to a concurrent control group gavaged with vehicle.
as §1, with “B6.V-Lep^ob/JUmeaTac” for “B6.V-Lep^ob/JBomTac”, “UMEA-M)” for “OB-M)”, “[…]” for “˜21°”, “−50%” for “˜50%”
as §2
Plasma triglycerides were determined with an enzymatic colorimetric assay (TRO100, Sigma-Aldrich) according to the manufacturer's recommendations.
as §3

Ob/Ob mice [7] = test: Test C insulin measurement study in diabetic Ob/Ob mice, Method (II); format: in vivo; conditions: fed Ob/Ob mice, 30 mg/kg gavage twice daily for 18 days, vs vehicle
Procedure: as §6, with “hyperinsulinemia.” for “hypertriglyceridemia.”, “Example” for “example”, “insulin” for “triglycerides”
The compound of Example 1 was obtained from Isosep AB, Uppsala, Sweden. A stock solution of 6 mg/ml was prepared by dissolving the compound in PBS, pH 7.4, 1% DMSO and 0.5% methyl cellulose.
as §1, with “[…]” for “˜21°”, “−50%” for “˜50%”, “All animal experiments were approved by the Local Ethics Review Committee on Animal Experiments, Umea Region.” left out
as §2
Plasma insulin levels were determined according to the manufacturer's recommendations with a rat insulin ELISA kit using mouse insulin standard (Crystal Chem Inc).
as §3

Compound: O=C1N=C(NS(=O)(=O)c2ccc(Cl)c(Cl)c2)SC1Cc1cccc(C(F)(F)F)c1 (centres unmarked) [Example 1, 5-(3-(Trifluoromethyl)benzyl)-2-(3,4-dichlorophenyl)sulfonyliminothiazolidin-4-one]
- Effect on fed blood glucose levels (Ob/Ob mice [1]): attenuated
- Effect on AMPK phosphorylation (AMPK): stimulates AMPK phosphorylation
- Time for AMPK phosphorylation to rise to near maximal levels (AMPK): ≤ 1 h
- Time for which AMPK phosphorylation was sustained (AMPK): 24 h
- BrdU incorporation relative to vehicle control (1 unit) ([2]; 0.5 μM): ~0.95 units
- BrdU incorporation relative to vehicle control (1 unit) ([2]; 1 μM): ~1 units
- BrdU incorporation relative to vehicle control (1 unit) ([2]; 5 μM): ~0.5 units
- BrdU incorporation relative to vehicle control (1 unit) ([2]; 10 μM): ~0.15 units
- Effect on proliferation rate as measured by BrdU incorporation [2]: dose dependent reduction in proliferation
- Effect on phosphorylation of ACC [3]: enhanced phosphorylation of ACC
- Tumor weight at the end of the experiment [4]: about 130 mg
- Effect on TGFβ dependent collagen IV secretion [5]: ameliorate the TGFβ dependent collagen IV secretion
- Effect on plasma triglycerides (Ob/Ob mice [6]): attenuated
- Effect on hyperinsulinemia (plasma insulin) (Ob/Ob mice [7]): attenuates hyperinsulinemia
